Laboratory results: ChEMBL document CHEMBL1201862, “PubChem BioAssay data set” (2004)
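Results reflect a 48-hour exposure of cells in 96-well plates to compound at five concentrations. GI50 marks 50% less growth.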 The source made the active and inactive calls. Cut-off read from the data, not from the text of the source: active = GI50 up to about 1.1 µM and inactive = higher.

What was measured:
Test in all cases: NCI tumour cell line growth inhibition, 48 h
A549 = tested on: A549
ACHN = tested on: ACHN
EKVX = tested on: EKVX
HCT-15 = tested on: HCT-15
HT-29 = tested on: HT-29
IGROV-1 = tested on: IGROV-1
MDA-MB-231 = tested on: MDA-MB-231
MDA-MB-435 = tested on: MDA-MB-435
MDA-N = tested on: MDA-N
Malme-3M = tested on: Malme-3M
OVCAR-3 = tested on: OVCAR-3
OVCAR-4 = tested on: OVCAR-4
PC-3 = tested on: PC-3
SF-295 = tested on: SF-295
SF-539 = tested on: SF-539
SNB-19 = tested on: SNB-19
SW-620 = tested on: SW-620
T47D = tested on: T47D
SK-MEL-2 = tested on: SK-MEL-2
SNB-75 = tested on: SNB-75

Row | SMILES | GI50 (A549) | GI50 (ACHN) | GI50 (EKVX) | GI50 (HCT-15) [µM] | GI50 (HT-29) | GI50 (IGROV-1) | GI50 (MDA-MB-231) | GI50 (MDA-MB-435) | GI50 (MDA-N) | GI50 (Malme-3M) | GI50 (OVCAR-3) | GI50 (OVCAR-4) | GI50 (PC-3) | GI50 (SF-295) | GI50 (SF-539) | GI50 (SNB-19) | GI50 (SW-620) | GI50 (T47D) | GI50 (SK-MEL-2) | GI50 (SNB-75)
1 | O=c1cc(NNCc2ccccc2)[nH]c(=O)[nH]1 | > 100 µM (inactive) | > 100 µM (inactive) | > 100 µM (inactive) | > 100 | > 100 µM (inactive) | > 100 µM (inactive) | > 100 µM (inactive) | > 100 µM (inactive) | > 100 µM (inactive) | 80.5 µM (inactive) | > 100 µM (inactive) | > 100 µM (inactive) | > 100 µM (inactive) | > 100 µM (inactive) | > 100 µM (inactive) | > 100 µM (inactive) | > 100 µM (inactive) | 0.678 µM (active) | – | –
2 | COC1CC(OC2CCC3(C)C(CCC45CCC(C6=CC(=O)OC6)C(C)(CCC43)C5=O)C2)OC(C)C1O (centres undefined) | 28.5 µM (inactive) | 22.1 µM (inactive) | 32.4 µM (inactive) | 24.3 | 39.5 µM (inactive) | 38.7 µM (inactive) | > 100 µM (inactive) | > 100 µM (inactive) | > 100 µM (inactive) | – | 27.7 µM (inactive) | – | 39.3 µM (inactive) | 33.9 µM (inactive) | 20.3 µM (inactive) | 20.3 µM (inactive) | 43.7 µM (inactive) | 30.8 µM (inactive) | 31.3 µM (inactive) | 30.3 µM (inactive)
3 | c1cc(CSP234N5CCN2CCN3CCN4CC5)cc(CSP234N5CCN2CCN3CCN4CC5)c1 | 40.1 µM (inactive) | 33 µM (inactive) | 63.2 µM (inactive) | 22.3 | 19.1 µM (inactive) | 21.5 µM (inactive) | 14.8 µM (inactive) | 22.6 µM (inactive) | 28.1 µM (inactive) | – | 32.3 µM (inactive) | 32.9 µM (inactive) | 25.3 µM (inactive) | 14.2 µM (inactive) | 22.9 µM (inactive) | 27.9 µM (inactive) | 28.8 µM (inactive) | > 100 µM (inactive) | 19.2 µM (inactive) | 20.1 µM (inactive)
4 | COc1ccc(C2Oc3c(cccc3OC)C=C2[N+](=O)[O-])cc1 (centres undefined) | 11.9 µM (inactive) | 1.74 µM (inactive) | 10.6 µM (inactive) | 1.36 | 1.63 µM (inactive) | 3.33 µM (inactive) | 3.3 µM (inactive) | 2.12 µM (inactive) | 2 µM (inactive) | 2.54 µM (inactive) | 2 µM (inactive) | 2.96 µM (inactive) | 1.69 µM (inactive) | 3.83 µM (inactive) | – | 3.99 µM (inactive) | – | 3.75 µM (inactive) | – | –
5 | O=C(O)c1nc2ccc(C(F)(F)F)cc2nc1NCc1ccc(Cl)c(Cl)c1 | 16.1 µM (inactive) | 15.4 µM (inactive) | 15.8 µM (inactive) | 18 | 15.2 µM (inactive) | 13.9 µM (inactive) | 16.8 µM (inactive) | 15.6 µM (inactive) | 19.6 µM (inactive) | – | 7.78 µM (inactive) | 18.5 µM (inactive) | 15.3 µM (inactive) | 17.4 µM (inactive) | 19.5 µM (inactive) | 12.6 µM (inactive) | 19.4 µM (inactive) | 16.6 µM (inactive) | 12.5 µM (inactive) | 20.7 µM (inactive)
6 | COc1cc(-c2ccccc2N)c2cccnc2c1OC | 3.69 µM (inactive) | 3.71 µM (inactive) | 5.06 µM (inactive) | 3.58 | 0.74 µM (active) | 2.97 µM (inactive) | 6.22 µM (inactive) | 8.17 µM (inactive) | 6.47 µM (inactive) | 14.9 µM (inactive) | 4.38 µM (inactive) | 6.3 µM (inactive) | 8.55 µM (inactive) | 1.54 µM (inactive) | 6.41 µM (inactive) | 4.75 µM (inactive) | 2.92 µM (inactive) | 4.04 µM (inactive) | 12.9 µM (inactive) | –
